Measured values reported in patent US8518978B2, “Pharmaceutical composition for prevention and treatment of restenosis comprising isoxazole derivatives” (SK Biopharmaceuticals Co., Ltd., priority 2007, dated 2013).

What was measured:
pig coronary stent model [1] = test: Re-endothelization in pig coronary stent model (vWF staining); assay type: in vivo
Experimental: All pigs receiving a surgical operation were treated with an antithrombotic agent ‘clopidogrel’ (35 mg/day) and aspirin (100 mg/day) before one week of the surgical operation. Pigs weighed 30 to 40 kg were anesthetized with ketamine (20 mg/kg IM) and xylazine (2 mg/kg IM), and their aesthesia was maintained by connecting an infusion set to their ear veins and allowing a ketamine/xylazine solution (ketamin 50 g+xylazine 10 g/500 ml saline) to flow in the ear veins according to the aesthesia state. Pig surgery regions were shaved, sterilized with betadine. Skin on the neck was cut by approximately 5 cm, and a pig carotid artery was found using a mosquito, and 1 ml of heparin (5,000 IU) was administered to pigs. Angiocardiography was performed using a SIREMOBIL 245B angiocardiographer (commercially available from Siemens). A stent (diameter: 3.0 mm; length: 15 mm) was used for surgical operation on LAD, RAD and RCX by expanding the stent at a ratio 1.3:1 of stent:vein diameter, and a position of stent transplantation was previously determined using the imaging system. […]
In order to observe a re-endothelization level by a drug, a tissue section slide of pig blood vessel was reacted at 4° C. with vWF (von willebrand factor, DakoCytomation, US) Ab that stains endothelial cells of mice. […] The tissue section slide was observed and photographed under a fluorescence microscope.

pig coronary stent model [2] = test: Restenosis inhibition in pig coronary stent model; assay type: in vivo
Experimental: All pigs receiving a surgical operation were treated with an antithrombotic agent ‘clopidogrel’ (35 mg/day) and aspirin (100 mg/day) before one week of the surgical operation. Pigs weighed 30 to 40 kg were anesthetized with ketamine (20 mg/kg IM) and xylazine (2 mg/kg IM), and their aesthesia was maintained by connecting an infusion set to their ear veins and allowing a ketamine/xylazine solution (ketamin 50 g+xylazine 10 g/500 ml saline) to flow in the ear veins according to the aesthesia state. Pig surgery regions were shaved, sterilized with betadine. Skin on the neck was cut by approximately 5 cm, and a pig carotid artery was found using a mosquito, and 1 ml of heparin (5,000 IU) was administered to pigs. Angiocardiography was performed using a SIREMOBIL 245B angiocardiographer (commercially available from Siemens). A stent (diameter: 3.0 mm; length: 15 mm) was used for surgical operation on LAD, RAD and RCX by expanding the stent at a ratio 1.3:1 of stent:vein diameter, and a position of stent transplantation was previously determined using the imaging system.
After 28 days, pigs were intravenously injected with KCl (40 meq/l) under a conventional aesthesia condition to induce pig cardioplegia, and hearts were extracted pigs. […]

[3] = system: HUVEC (human umbrical vein endothelial cell); test: Test of endothelial cell proliferation (cell count); assay type: cell-based; conditions: for endothelial cell proliferation: drug alone, increasing concentration, two days, cell count (FIGS. 5, 8 to 10)
Experimental: An HUVEC (human umbrical vein endothelial cell, Cambrex, US) cell line at 3-10 passages was incubated in an EGM2 (endothelial growth medium, Cambrex, US) culture medium under a standard culture condition (O2 95%, 5% CO2, 37° C., 100% RH). 1×10^4 Cells was divided into a 24-well plate, and cultured for a day so that the cells can be fixed into the 24-well plate. In order to allow the cells to enter interphase, the cells were washed three times with PBS, and the EGM2 culture medium was replaced by EBM2 (endothelial basal medium, Cambrex) including 1% fetal bovine serum and 1% antibiotic-antimycotic (Gibco, US), and the cells were incubated for a day. After the used medium was removed, an EBM2 including 1% fetal bovine serum and 1% antibiotic-antimycotic (Gibco) solution supplemented with a drug was added to the cells, and the cell solution was then cultured for two days. After the cell culture, morphology of the cells was observed under a microscope. Then, the cells were detached from the plate using trypsin, and counted using a hemacytometer. 0.1% DMSO dissolved in saline was used as the vehicle control.

[4] = system: rat carotid artery injury model; test: Re-endothelization in rat carotid artery injury model (vWF staining); assay type: in vivo
Excerpt: (§1) White rats weighed 350 to 400 g were anesthetized with ketamine and xylene, and their surgery regions were shaved and sterilized with betadine. Skin on the neck region was cut by about 2 cm, and a rat carotid artery was found using a mosquito. A blood flow was prevented by hanging a thread on the carotid artery and an internal carotid artery, followed by tying an external carotid artery with a thread. A 2F forgarty catheter (Baxter, US) was inserted into a blood vessel between the external carotid artery and the carotid artery to wound a carotid artery region three times. Then, the wounded carotid artery region was tied with a thread to allow a blood flow through the carotid artery and the internal carotid artery and prevent hemorrhage between the carotid artery and the external carotid artery, and the surgery region was closed with stitches. Each of rear neck skins were cut by approximately 1 cm, and an osmotic pump containing a drug is inserted into the blood vessel and closed with stitches. After 1 week to observe the endothelial cells and 2 weeks to observe the restenosis, all blood was extracted from each subject rat using a perfusion, carotid arteries were taken from the rats and their tissue slides were made to observe their section of blood vessel. […]

[5] = system: rat carotid artery injury model; test: Restenosis inhibition in rat carotid artery injury model; assay type: in vivo
Excerpt: as §1

[6] = system: SMC (rat aortic smooth muscle cell); test: Test of vascular smooth muscle cell proliferation (cell count); assay type: cell-based
Experimental: An SMC (rat aortic smooth muscle cell) cell line at 3-10 passages was incubated in a culture medium of SmGM (Smooth muscle cell growth medium, Cambrex) including 5% fetal bovine serum and 1% antibiotic antimycotic reagent (Gibco, US) under a standard culture condition ([…], 5% CO2, 37° C., 100% RH). 2×10^4 Cells were divided into a 24-well plate, and cultured for a day so that the cells can be fixed into the 24-well plate. The cells were washed three times with PBS, put into a solution of SmGM including 5% fetal bovine serum and 1% antibiotic-antimycotic (Gibco), and then incubated for a day. After the used medium was removed, an SmGM including 5% fetal bovine serum solution supplemented with a corresponding drug was added to the cells, and the cell solution was then cultured for two days. After the cell culture, morphology of the cells was observed under a microscope. Then, the cells were detached from the plate using trypsin, and counted using a hemacytometer. 0.1% DMSO dissolved in saline was used as the vehicle control.

[7] = isoxazole derivative together with rapamycin, versus rapamycin alone (FIG. 6)

| Structure (SMILES) | endothelial cell proliferation [3] | other results |
| --- | --- | --- |
| CO[C@H]1C[C@@H]2CC[C@@H](C)[C@@](O)(O2)C(=O)C(=O)N2CCCC[C@H]2C(=O)O[C@H]([C@H](C)C[C@@H]2CC[C@@H](O)[C@H](OC)C2)CC(=O)[C@H](C)/C=C(\C)[C@@H](O)[C@@H](OC)C(=O)[C@H](C)C[C@H](C)/C=C/C=C/C=C/1C [rapamycin, reference compound] |  | re-endothelization rate (healing %) (pig coronary stent model [1]; drug-containing PLGA stent, polymer-coated stent 80.2% (FIG. 15)): 67.9%; restenotic areas of blood vessels (pig coronary stent model [2]; stent with PLGA polymer and drug, after 28 days, negative control 2.74 mm^2 (FIG. 14)): 1.80 mm^2 |
| O=C(NCCCn1ccnc1)c1cc(-c2ccsc2)on1 [Derivative 63, 5-thiophen-3-yl-isoxazole-3-carboxylic acid (3-imidazol-1-yl-propyl)-amide] | inhibit or maintain the proliferation of the endothelial cells |  |
| O=C(NCCCn1cncn1)c1cc(-c2ccsc2)on1 [Derivative 62, 5-thiophen-3-yl-isoxazole-3-carboxylic acid (3-[1,2,4]-triazol-1-yl-propyl)-amide] | inhibit or maintain the proliferation of the endothelial cells |  |
| CC(=O)O[C@H]1C(=O)[C@@]2(C)[C@H]([C@H](OC(=O)c3ccccc3)[C@]3(O)C[C@H](OC(=O)[C@H](O)[C@@H](NC(=O)c4ccccc4)c4ccccc4)C(C)=C1C3(C)C)[C@]1(OC(C)=O)CO[C@@H]1C[C@@H]2O [paclitaxel, reference compound] | inhibit the proliferation of HUVEC |  |
| O=C(NCCCn1cncn1)c1cc(-c2cccs2)on1 [Derivative 50, 5-thiophen-2-yl-isoxazole-3-carboxylic acid (3-[1,2,4]-triazol-1-yl-propyl)-amide] | inhibit or maintain the proliferation of the endothelial cells |  |
| O=C(NCCCn1ccnc1)c1cc(-c2ccccc2)on1 [Derivative 23, 5-phenyl-isoxazole-3-carboxylic acid (3-imidazol-1-yl-propyl)-amide] | inhibit or maintain the proliferation of the endothelial cells |  |
| Cn1cnnc1S(=O)(=O)CCNC(=O)c1cc(-c2ccco2)on1 [Derivative 70, 5-furan-2-yl-isoxazole-3-carboxylic acid [2-(4-methyl-4H-[1,2,4]triazol-3-yl-sulfonyl)-ethyl]-amide] | inhibit or maintain the proliferation of the endothelial cells |  |
| O=C(NCCn1cncn1)c1cc(-c2ccc(F)cc2)on1 [Derivative 35, 5-(4-fluoro-phenyl)-isoxazole-3-carboxylic acid (2-[1,2,4]triazol-1-yl-ethyl)-amide] | inhibit or maintain the proliferation of the endothelial cells |  |
| O=C(NCCCn1cncn1)c1cc(-c2ccco2)on1 [Derivative 19, 5-furan-2-yl-isoxazole-3-carboxylic acid (3-[1,2,4]triazol-1-yl-propyl)-amide] | inhibit or maintain the proliferation of the endothelial cells |  |
| O=C(NCCCSc1nnc[nH]1)c1cc(-c2cccs2)on1 [Derivative 69, 5-thiophen-2-yl-isoxazole-3-carboxylic acid [3-(4H-[1,2,4]triazol-3-yl-sulfanyl)-propyl]-amide] | inhibit or maintain the proliferation of the endothelial cells |  |
| Cn1nnnc1SCCNC(=O)c1cc(-c2cccs2)on1 [Derivative 68, 5-thiophen-2-yl-isoxazole-3-carboxylic acid [2-(1-methyl-1H-tetrazol-5-yl-sulfanyl)-ethyl]-amide] | inhibit or maintain the proliferation of the endothelial cells |  |
| O=C(NCCn1ccnc1)c1cc(-c2ccco2)on1 [Derivative 4, 5-furan-2-yl-isoxazole-3-carboxylic acid (2-imidazol-1-yl-ethyl)-amide] | inhibit or maintain the proliferation of the endothelial cells |  |
| O=C(NCCCn1cncn1)c1cc(-c2ccc(F)cc2)on1 [Derivative 31, 5-(4-fluoro-phenyl)-isoxazole-3-carboxylic acid (3-[1,2,4]triazol-1-yl-propyl)-amide] | inhibit or maintain the proliferation of the endothelial cells |  |
| O=C(NCCc1ccncc1)c1cc(-c2ccco2)on1 [Derivative 5, 5-furan-2-yl-isoxazole-3-carboxylic acid (2-pyridin-4-yl-ethyl)-amide] | increases or maintains the proliferation of HUVEC | re-endothelization on damaged carotid artery surface ([4]; 200 μg/kg/day for two weeks, versus not administered (FIG. 12)): occurs more significantly; re-endothelization, together with rapamycin ([4]; compound together with rapamycin versus compound only (FIG. 13)): more significantly increased; endothelial cell proliferation, used together with paclitaxel ([3]; isoxazole derivative together with paclitaxel, versus paclitaxel alone (FIG. 7)): recovered; endothelial cell proliferation, used together with rapamycin [3, 7]: recovered; re-endothelization on the damaged artery surface (pig coronary stent model [1]; 4 weeks, stent with rapamycin plus derivative 5 (FIG. 15)): significantly recovered; restenotic area of the blood vessel ([5]; 200 μg/kg/day for two weeks by osmotic pump, versus not administered (FIG. 11)): more significantly reduced in size; restenosis inhibition effect, together with rapamycin ([5]; compound together with rapamycin versus compound only (FIG. 11, FIG. 13)): more significant restenosis inhibition effect; cell number of vascular smooth muscle cells (VSMC) ([6]; drug alone, increasing concentration, two days (FIG. 5)): reduced; vascular smooth muscle cell proliferation, used together with rapamycin [6, 7]: inhibited more significantly; lumen losses of blood vessel (pig coronary stent model [2]; stent with 180 μg rapamycin plus 45, 90 or 180 μg derivative 5, 28 days, versus rapamycin-treated group (FIG. 14)): further reduced |
